The source of these data is ChEMBL document CHEMBL1201862, “PubChem BioAssay data set” (2004).

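Step 1: Grow cells in 96-well plates. Step 2: Expose to compound for 48 hours at 5 concentrations. Step 3: Interpolate endpoints linearly; if unreached, use highest concentration. The concentration for 50% growth inhibition is given as GI50.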 The source made the active and inactive calls. Cut-off read from the data, not from the text of the source: active = GI50 up to about 1.1 µM and inactive = higher.

Assay in all cases: DTP human tumour cell line panel, 48 h
In test [1] the test system is M14.
Test [2] deals with UACC-257.
In test [3] the test system is KM12.
Test [4] deals with OVCAR-4.
Test [5] concerns EKVX.
The subject of test [6] is MDA-MB-231.
In test [7] the test system is NCI-H460.
In test [8] the test system is OVCAR-5.
For test [9], the system named is SF-295.
Test [10] relates to HCC 2998.
For test [11], the system named is U-251.
Test [12] deals with HCT-15.
Test [13] deals with NCI-H23.
Test [14] deals with SR.
In test [15] the test system is SNB-19.
Test [16] has as its system ACHN.
Test [17] concerns HL-60.
Test [18] deals with T47D.
For test [19], the system named is RPMI-8226.

Take `O=C(N(C1=CCCC1)N(c1ccccc1)c1ccccc1)C(F)(F)F`: the GI50 (as a rule, the concentration giving 50% growth inhibition) in test [1] is 26.2 µM (inactive); in test [2], 21.6 µM (inactive); in [3] it was 18.1 µM (inactive); in [4] it was 25.4 µM (inactive); in test [5], 17.5 µM (inactive); in [6], 16.9 µM (inactive). Further, the GI50 was 17.5 µM (inactive) in test [7]; 27 µM (inactive) in test [8]; 22.6 µM (inactive) in test [9]; 18.2 µM (inactive) in [10]; 19.8 µM (inactive) in test [11]; 21.4 µM in test [12]. The GI50 in test [13] was 30.4 µM (inactive); in [14] it was 31 µM (inactive); in test [15], 30 µM (inactive); in test [16] it was 17.3 µM (inactive); in [17], 20.3 µM (inactive); in test [18], 17 µM (inactive).

As to `FC(F)(F)c1cccnc1Sc1nc2ccccc2s1`, the GI50 in [1] was 37.6 µM (inactive); in test [2] it was > 100 µM (inactive); in [19], 45.8 µM (inactive); in [3], > 100 µM (inactive); in test [4], > 100 µM (inactive); in test [5], 63 µM (inactive). The GI50 in test [6] was 63.8 µM (inactive); in test [7] it was > 100 µM (inactive); in [8], 34.1 µM (inactive); in test [9], 63 µM (inactive); in test [10], > 100 µM (inactive); in [11] it was > 100 µM (inactive). Moreover, the GI50 in test [12] was above 100 µM; in test [13], 80.4 µM (inactive); in test [14], 30.9 µM (inactive); in [15], > 100 µM (inactive); in [16], > 100 µM (inactive); in test [18], > 100 µM (inactive).

Take `Nc1ccc(-c2nc3ccccc3s2)cc1C#Cc1ccccc1`: the GI50 is 16.3 µM (inactive) in test [1]; 16 µM (inactive) in [2]; 20.9 µM (inactive) in test [19]; 16.7 µM (inactive) in test [3]; 20.6 µM (inactive) in test [4]; 20.7 µM (inactive) in [5]. The GI50 in [6] was 19.7 µM (inactive); in [7], 17 µM (inactive); in [8] it was 27.2 µM (inactive); in [9], 21.2 µM (inactive); in test [11], 20.1 µM (inactive); in test [12], 17.9 µM. Besides, the GI50 in test [13] is 20.9 µM (inactive); in test [14] it was 37.5 µM (inactive); in test [15] it was 22.3 µM (inactive); in test [16] it was 18.8 µM (inactive); in [17] it was 26.5 µM (inactive); in [18], 27 µM (inactive).

Consider `CC1C2CC(CC2=O)C1(C)C` (centres undefined), for which the GI50 in test [1], in test [2], in test [3], in test [4], in [5] and in test [6] was > 100 µM (inactive) throughout. The GI50 in [7], in test [8], in test [9], in test [10], in test [11] and in [13] was > 100 µM (inactive) each time. The GI50 in test [14], in [15], in test [16], in test [17] and in test [18] was > 100 µM (inactive) throughout.

Take `COC1OC(Cn2cc([N+](=O)[O-])nc2C)C(O)C(O)C1O` (centres undefined): the GI50 in test [1], in test [2], in test [19], in test [3], in test [4] and in [5] was > 100 µM (inactive) each time. The GI50 in test [6], in [7], in [8], in test [9], in [10] and in test [11] was > 100 µM (inactive) throughout. The GI50 in test [12] is above 100 µM; in test [13], > 100 µM (inactive); in [14] it was > 100 µM (inactive); in test [15], > 100 µM (inactive); in test [16], > 100 µM (inactive); in test [18] it was > 100 µM (inactive).

For `Cc1nc(N)sc1/N=N/c1cc(Cl)c([N+](=O)[O-])cc1Cl`, the GI50 is 50.4 µM (inactive) in test [1]; 16.7 µM (inactive) in test [2]; 2.29 µM (inactive) in [19]; 18.1 µM (inactive) in test [3]; 13 µM (inactive) in [5]; 14.8 µM (inactive) in [6]. In addition, the GI50 in [7] was 30 µM (inactive); in test [8], 31.3 µM (inactive); in test [9], 23.9 µM (inactive); in test [11], 16.3 µM (inactive); in test [12], 21.4 µM; in test [14], 13.6 µM (inactive). Moreover, the GI50 was 29.1 µM (inactive) in test [15], 20.4 µM (inactive) in test [16], 22.9 µM (inactive) in test [17] and 35.9 µM (inactive) in [18].

Consider `Cc1ccc(N(C(=O)Nc2ccc(F)c(Cl)c2)C2=NCC(C)S2)cc1` (centres undefined), for which the GI50 in [2] was 53.2 µM (inactive); in [19], > 10 µM (inactive); in test [3] it was 42 µM (inactive); in test [4] it was 38.7 µM (inactive); in [5] it was 49.9 µM (inactive); in test [6], > 100 µM (inactive). Besides, the GI50 in test [7] is 45.1 µM (inactive); in test [8], > 100 µM (inactive); in test [9], 49.3 µM (inactive); in test [11] it was 50.6 µM (inactive); in test [12] it was 52.7 µM; in test [13], 28.6 µM (inactive). In addition, the GI50 in test [14] is 40.2 µM (inactive); in [15] it was > 100 µM (inactive); in test [16] it was 50.2 µM (inactive); in [17] it was 23.8 µM (inactive); in [18], 33 µM (inactive).

As for `Cc1ccc(S(=O)(=O)NC(=O)NC(CO)C(=O)O)cc1` (centres undefined), the GI50 in [1], in test [2], in test [19], in test [3], in test [4] and in [6] was > 100 µM (inactive) throughout. Also, the GI50 is > 100 µM (inactive) in [7]; > 100 µM (inactive) in [8]; > 100 µM (inactive) in [9]; > 100 µM (inactive) in [11]; above 100 µM in test [12]; > 100 µM (inactive) in test [13]. Also, the GI50 in test [14], in [15], in [16], in test [17] and in test [18] was > 100 µM (inactive) in each case.

`O=c1c2ccccc2nc2[nH][nH]c(=S)n12`: the GI50 was > 100 µM (inactive) in [1]; > 100 µM (inactive) in test [2]; > 100 µM (inactive) in test [19]; > 100 µM (inactive) in test [3]; 83.6 µM (inactive) in test [5]; > 100 µM (inactive) in test [6]. For the same compound, the GI50 in [7] is > 100 µM (inactive); in test [8], > 100 µM (inactive); in test [9], > 100 µM (inactive); in [11] it was > 100 µM (inactive); in test [12], above 100 µM; in test [13], > 100 µM (inactive). For the same compound, the GI50 in test [14], in test [15], in test [16], in test [17] and in test [18] was > 100 µM (inactive) throughout.

In the case of `Cn1c(=O)c2c([nH]/c(=N/N=C/c3ccccc3C(=O)O)n2C)n(C)c1=O`, the GI50 in test [1], in [2], in test [19], in test [3], in [4] and in test [5] was > 100 µM (inactive) in each case. In addition, the GI50 in [6] is > 100 µM (inactive); in test [7] it was > 100 µM (inactive); in test [8] it was > 100 µM (inactive); in [9], > 100 µM (inactive); in test [11], > 100 µM (inactive); in test [12], above 100 µM. The GI50 in test [13], in test [14], in [15], in test [16], in [17] and in test [18] was > 100 µM (inactive) each time.

In the case of `COC(=O)n1c(C)c(C=O)c2ccc(OC)cc21`, the GI50 in [1] is 36.3 µM (inactive); in [2], 45.2 µM (inactive); in test [3] it was 36.4 µM (inactive); in [4], > 100 µM (inactive); in [5], 46.5 µM (inactive); in test [6], > 100 µM (inactive). Also, the GI50 in [7] is 47.8 µM (inactive); in test [8] it was 54.7 µM (inactive); in [9] it was 24.9 µM (inactive); in [10], 25.9 µM (inactive); in test [12], 31.1 µM; in test [13], 28.6 µM (inactive). For the same compound, the GI50 in [14] is 34.5 µM (inactive); in test [15], 42.7 µM (inactive); in test [16] it was 33.1 µM (inactive); in [17], 31.3 µM (inactive); in test [18], 72.3 µM (inactive).

As for `Cc1nc2sc3ccccc3n2c(=O)c1/N=N/c1ccc(Cl)cc1`, the GI50 in [1], in test [2], in [19], in test [3], in test [4] and in test [5] was > 100 µM (inactive) in each case. In addition, the GI50 in test [6] is 83.9 µM (inactive); in test [7], > 100 µM (inactive); in [8], > 100 µM (inactive); in test [9], > 100 µM (inactive); in [11] it was > 100 µM (inactive); in test [12] it was above 100 µM. Moreover, the GI50 in test [13], in test [14], in [15], in test [16], in [17] and in test [18] was > 100 µM (inactive) each time.
